Source: article PMC7345836, “Absorption and Tissue Distribution of Siphonaxanthin from Green Algae” (Marine Drugs, 2020)

Key:
Caco-2 cells = assay: Uptake and metabolism of micellar siphonaxanthin by differentiated Caco-2 cells; format: in vitro ADME, human; conditions: Caco-2 cells incubated with 1 nmol/well siphonaxanthin solubilized micelles for 1, 3, 6 and 24 h
Description: Caco-2 cells obtained from the RIKEN Gene Bank (Tsukuba, Japan) were cultured in Dulbecco’s Modified Eagle’s Medium (DMEM) containing 10% fetal bovine serum (FBS), 1% penicillin-streptomycin (PS), and 1% non-essential amino acids in a humidified atmosphere of 95% air and 5% CO2 at 37 °C. For differentiation, cells were seeded in 12-well plates at a density of 2.0 × 10^5 cells/well in 1 mL DMEM medium described above and allowed to differentiate until day 22 from seeding. The medium was regularly changed three times a week. Experiments were performed at day 22 post-seeding on 12-well plates.
Siphonaxanthin solubilized in micelles was added to the medium for treatment, and micelle formation was performed as previously described. […] The concentration of micellar carotenoid was determined as 1.0 ± 0.05 μmol/L by HPLC before use in the following experiment.
The cell monolayers on 12-well plates were rinsed with the serum-free medium and then incubated in 1 mL of medium containing micellar siphonaxanthin. […] The residue was dissolved in methanol and subjected to quantitative and qualitative analysis. […] The concentration of siphonaxanthin in the medium was also analyzed. An aliquot of the medium was mixed with 4-fold methanol and subjected to the above HPLC analysis for quantify. […]

[1] = Tissue distribution and accumulation of siphonaxanthin and its metabolites in mice after 16-day dietary supplementation (HPLC); format: in vivo; conditions: ICR mice
Description: (§1) All experimental animal protocols were approved by the Animal Experimentation Committee of Kyoto University, Japan, for the care and use of experimental animals (Approval No. 26–35). Male ICR mice (7 weeks of age) were purchased from Japan SLC, Inc. (Hamamatsu, Japan). All mice were housed individually and maintained on an alternating 12-h light/dark cycle at a temperature of 23 ± 1 °C and free access to drinking water and chow (Oriental Yeast Co., Ltd., Tokyo, Japan). After an acclimatization period of 1 week, the mice were randomly divided into control and siphonaxanthin groups (n = 4 per group). Mice in the control group were fed an AIN-93G diet. The siphonaxanthin mouse group was fed the AIN-93G diet with siphonaxanthin supplementation, 65.79 nmol/g of diet (0.004%). The total food intake and body weight were recorded daily. After dietary supplementation for 16 days, the mice were anesthetized with isoflurane. Blood was collected from the caudal vena cava. Plasma was prepared by centrifuging at 400 g for 15 min at 4 °C. The tissues were rapidly removed, weighed, and immediately frozen in liquid nitrogen, and stored at −80 °C until use.
Carotenoids were then extracted from the plasma and tissues. Briefly, aliquots of tissue samples (0.2 g) were homogenized in a 9-fold volume of 0.9% NaCl saline with a homogenizer dispenser (T10 basic ULTRA-TURRAX, IKA). Plasma samples were diluted with a 3-fold volume of Milli-Q water. The resultant tissue homogenates (0.9 mL) or diluent plasma samples (0.9 mL) were mixed with 3 mL of dichloromethane/methanol (2:1, v/v) to extract carotenoids. The samples were extracted three times, and the dichloromethane layer was collected after centrifugation at 1690 g at 4 °C for 10 min. After evaporation under nitrogen, the residue was resuspended in 20 μL of dichloromethane and methanol (1:1, v/v) for HPLC analysis.
HPLC analysis was performed using a Prominence LC system (Shimadzu, Kyoto, Japan) connected to a photodiode array detector (SPD-M20A, Shimadzu, Kyoto, Japan), followed by an ion trap-time of flight mass spectrometer (LCMS-IT-TOF, Shimadzu, Kyoto, Japan) equipped with an atmospheric pressure chemical ionization (APCI) source or electrospray ionization (ESI) source. Siphonaxanthin was separated on a TSK gel ODS-80Ts QA column (2.0 × 250 mm, 5 μm, Tosoh, Tokyo, Japan). The binary gradient mobile phase was methanol/water (83:17, v/v) containing 0.1% ammonium acetate as mobile phase A and ethyl acetate/methanol (30:70, v/v) containing 0.1% ammonium acetate as mobile phase B. The column was eluted at a flow rate of 0.2 mL/min using the following gradients: 0–30 min, 0% B; 30–45 min, 0–100% B; 45–60 min, 100% B; 60–65 min, 100–0% B; 65–70 min, 0% B. Siphonaxanthin was detected at 450 nm. The APCI source was heated at 200 °C, and the probe was maintained at 400 °C. Nitrogen was used as sheath gas at 2.0 L/min, and drying gas was used at 25 kPa. Mass spectra were recorded in the positive ion mode. For the ESI source, sheath gas was set at 1.5 L/min, and drying gas was used at 120 kPa. A spray voltage of 4.5 kV was used for positive ionization. The peak identities of siphonaxanthin and its possible metabolites were further confirmed from their characteristic UV-vis spectra and their positive ions. Siphonaxanthin was quantified from its peak area at 450 nm using an external standard calibration curve with purified siphonaxanthin. Due to the unavailability of standards, possible metabolites of siphonaxanthin were estimated from the siphonaxanthin standard curve.

[2] = Body weight, food intake and tissue weight of ICR mice fed siphonaxanthin diet; format: in vivo
Description: as §1

[3] = siphonaxanthin diet vs control diet, 16 days

## CC1=C[C@H](O)CC(C)(C)[C@H]1/C=C/C(C)=C/C=C/C(C)=C/C=C/C=C(C)/C=C/C=C(\CO)C(=O)CC1=C(C)C[C@@H](O)CC1(C)C [Siphonaxanthin, 3,19,3’-Trihydroxy-7,8-dihydro-β,ε-caroten-8-one]
Caco-2 cells
  Cellular concentration of siphonaxanthin: rapidly and linearly increased until 3 h after incubation, and then gradually increased until 24 h
  Concentration of siphonaxanthin in the medium: decreased with increasing incubation time
[1]; Brain, 16-day diet with siphonaxanthin 65.79 nmol/g, mean ± SEM, n = 4, N.D., not detected
  Concentration in brain: 0.4 ± 0.3 pmol/g
[1]; Brain, 16-day siphonaxanthin diet
  % of the total carotenoids in brain: 100%
[1]; Colon, 16-day diet with siphonaxanthin 65.79 nmol/g, mean ± SEM, n = 4
  Concentration in colon: 198 ± 24.5 pmol/g
[1]; Colon, 16-day siphonaxanthin diet
  % of the total carotenoids in colon: 82.5%
[1]; Epididymal WAT, 16-day siphonaxanthin diet
  % of the total carotenoids in epididymal WAT: 14.6%
[1]; Epididymal white adipose tissue, 16-day diet with siphonaxanthin 65.79 nmol/g, mean ± SEM, n = 4, N.D., not detected
  Concentration in epididymal WAT: 27.8 ± 14.3 pmol/g
[1]; Heart, 16-day diet with siphonaxanthin 65.79 nmol/g, mean ± SEM, n = 4
  Concentration in heart: 67.1 ± 25.2 pmol/g
[1]; Heart, 16-day siphonaxanthin diet
  % of the total carotenoids in heart: 52.2%
[1]; Interscapular brown adipose tissue, 16-day diet with siphonaxanthin 65.79 nmol/g, mean ± SEM, n = 4
  Concentration in BAT: 30.5 ± 11.4 pmol/g
[1]; Interscapular brown adipose tissue, 16-day siphonaxanthin diet
  % of the total carotenoids in BAT: 41.7%
[1]; Kidney, 16-day diet with siphonaxanthin 65.79 nmol/g, mean ± SEM, n = 4
  Concentration in kidney: 38.2 ± 15.7 pmol/g
[1]; Kidney, 16-day siphonaxanthin diet
  % of the total carotenoids in kidney: 84.1%
[1]; Liver, 16-day diet with siphonaxanthin 65.79 nmol/g, mean ± SEM, n = 4
  Concentration in liver: 37.1 ± 14.4 pmol/g
[1]; Liver, 16-day siphonaxanthin diet
  % of the total carotenoids in liver: 18.7%
[1]; Lung, 16-day diet with siphonaxanthin 65.79 nmol/g, mean ± SEM, n = 4
  Concentration in lung: 22.9 ± 8.2 pmol/g
[1]; Lung, 16-day siphonaxanthin diet
  % of the total carotenoids in lung: 38.8%
[1]; Mesenteric WAT, 16-day siphonaxanthin diet
  % of the total carotenoids in mesenteric WAT: 24.5%
[1]; Mesenteric white adipose tissue, 16-day diet with siphonaxanthin 65.79 nmol/g, mean ± SEM, n = 4
  Concentration in mesenteric WAT: 110 ± 50.8 pmol/g
[1]; Muscle, 16-day diet with siphonaxanthin 65.79 nmol/g, mean ± SEM, n = 4
  Concentration in muscle: 14.2 ± 7.5 pmol/g
[1]; Muscle, 16-day siphonaxanthin diet
  % of the total carotenoids in muscle: 52.6%
[1]; Pancreas, 16-day diet with siphonaxanthin 65.79 nmol/g, mean ± SEM, n = 4
  Concentration in pancreas: 46.1 ± 12.5 pmol/g
[1]; Pancreas, 16-day siphonaxanthin diet
  % of the total carotenoids in pancreas: 45.4%
[1]; Perirenal WAT, 16-day siphonaxanthin diet
  % of the total carotenoids in perirenal WAT: 13.3%
[1]; Perirenal white adipose tissue, 16-day diet with siphonaxanthin 65.79 nmol/g, mean ± SEM, n = 4
  Concentration in perirenal WAT: 22.1 ± 12.0 pmol/g
[1]; Plasma, 16-day siphonaxanthin diet
  % of the total carotenoids in plasma: 5.5%
[1]; Small intestine, 16-day diet with siphonaxanthin 65.79 nmol/g, mean ± SEM, n = 4
  Concentration in small intestine: 3428 ± 1389 pmol/g
[1]; Small intestine, 16-day siphonaxanthin diet
  % of the total carotenoids in small intestine: 79.5%
[1]; Spleen, 16-day diet with siphonaxanthin 65.79 nmol/g, mean ± SEM, n = 4
  Concentration in spleen: 20.6 ± 3.4 pmol/g
[1]; Spleen, 16-day siphonaxanthin diet
  % of the total carotenoids in spleen: 45.7%
[1]; Stomach, 16-day diet with siphonaxanthin 65.79 nmol/g, mean ± SEM, n = 4, siphonaxanthin standard curve
  Concentration in stomach: 2054 ± 636 pmol/g
[1]; Stomach, 16-day siphonaxanthin diet
  % of the total carotenoids in stomach: 94.0%
[1]; Testis, 16-day diet with siphonaxanthin 65.79 nmol/g, mean ± SEM, n = 4
  Concentration in testis: 25.0 ± 10.0 pmol/g
[1]; Testis, 16-day siphonaxanthin diet
  % of the total carotenoids in testis: 84.3%
[1]; male, mouse, oral, 65.79 nmol/g of diet, Plasma, 16-day diet with siphonaxanthin 65.79 nmol/g, mean ± SEM, n = 4
  concentration at 16 days: 18.3 ± 4 nM
[2]; [3]
  Body weight: not altered
  Weight of the other tissues: did not significantly decrease
[2]; siphonaxanthin diet vs control diet, 16 days, p < 0.05
  Weight of the spleen: significantly decreased
[2]; siphonaxanthin vs control group, 16-day experimental period
  Food intake: not altered
